Test results as given in publication PMC11790914, “Chemogenomics for steroid hormone receptors (NR3)” (Communications Chemistry, 2025).
Several values for one entry are separate records, joined by “and”; a condition that tells them apart may be missing. Equal entries are not always repeated.

What was measured:
BRD4 = molecular target: T1, BRD4 (Homo sapiens, UniProt O60885); assay: Liability panel screening by DSF: BRD4; format: binding; conditions: DSF, 20 µM, n=2; read-out: Mean ΔTM BRD4
T1 construct: This panel comprised ten highly ligandable kinases and bromodomains; made in house
Procedure, shortened: (§1)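 Recombinant protein at 2 µM in 10 mM HEPES pH 7.5 with 500 mM NaCl was mixed with SYPRO Orange (1:1000) and heated at 3 °C/min up to 85 °C. Tm was taken as the Boltzmann-fit inflection point. Shifts are ∆Tm in K from technical duplicates.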

CSNK1D = molecular target: T2, CSNK1D (Homo sapiens, UniProt P48730); assay: Liability panel screening by DSF: CSNK1D; format: binding; conditions: DSF, 20 µM, n=2; read-out: Mean ΔTM CSNK1D
T2 construct: made in house
T2 sequence (P48730 whole entry, species assumed): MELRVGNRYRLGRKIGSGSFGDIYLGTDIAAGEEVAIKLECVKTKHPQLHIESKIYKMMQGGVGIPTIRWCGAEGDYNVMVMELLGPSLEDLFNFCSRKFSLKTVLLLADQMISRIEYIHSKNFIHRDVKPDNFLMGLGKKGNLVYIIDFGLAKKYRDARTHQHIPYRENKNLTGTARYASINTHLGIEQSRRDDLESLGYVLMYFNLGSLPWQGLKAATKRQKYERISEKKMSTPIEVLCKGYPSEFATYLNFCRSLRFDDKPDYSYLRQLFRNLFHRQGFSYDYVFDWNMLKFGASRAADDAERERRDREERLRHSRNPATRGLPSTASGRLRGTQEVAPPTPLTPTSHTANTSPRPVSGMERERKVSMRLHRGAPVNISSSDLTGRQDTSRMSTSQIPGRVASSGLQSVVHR
Procedure, shortened: as §1

[1] = tested on: ATF6 activity in Hela ATF6 reporter cells; assay: Endoplasmic reticulum stress assay (ATF6 Renilla luciferase reporter, tunicamycin); format: cell-based
Procedure, shortened: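 ER stress was induced by 100 ng/mL tunicamycin added 4 h after compound (0.1% DMSO) to HeLa ATF6 reporter cells. After 18 h more, Renilla luciferase signal was read and expressed relative to DMSO control, n=5 biological replicates.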

HEK293T cells [2] = assay: Cytotoxicity: apoptosis induction (caspase-3/7 DEVD fluorogenic DNA dye); conditions: 3 µM; HEK293T, 24 h; apoptotic cell count normalized to 0.1% DMSO; single replicates
AURKA = molecular target: T3, AURKA (Homo sapiens, UniProt O14965); assay: Liability panel screening by DSF: AURKA; format: binding; conditions: DSF, 20 µM, n=2; read-out: Mean ΔTM AURKA
T3 construct: made in house
T3 sequence (O14965 1-403): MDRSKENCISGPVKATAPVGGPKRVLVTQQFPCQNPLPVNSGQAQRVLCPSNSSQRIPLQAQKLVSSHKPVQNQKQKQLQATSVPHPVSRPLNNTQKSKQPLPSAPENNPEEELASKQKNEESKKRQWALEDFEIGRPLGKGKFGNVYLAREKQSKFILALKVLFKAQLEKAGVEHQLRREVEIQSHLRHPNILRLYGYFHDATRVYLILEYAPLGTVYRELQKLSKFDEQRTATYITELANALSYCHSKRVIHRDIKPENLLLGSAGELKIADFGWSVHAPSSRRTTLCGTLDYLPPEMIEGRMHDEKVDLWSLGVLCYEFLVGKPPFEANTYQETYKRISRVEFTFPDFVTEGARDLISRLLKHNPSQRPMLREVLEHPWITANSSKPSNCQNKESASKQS
Procedure, shortened: as §1

CDK2 = molecular target: T4, CDK2 (Homo sapiens, UniProt P24941); assay: Liability panel screening by DSF: CDK2; format: binding; conditions: DSF, 20 µM, n=2; read-out: Mean ΔTM CDK2
T4 construct: made in house
Procedure, shortened: as §1

[3] = tested on: NF-κB activity in HEK293 NF-κB reporter cells; assay: NF-kB activity assay (GFP reporter, ionomycin/PMA); format: cell-based; conditions: n=3
Procedure, shortened: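 Reporter readout: GFP-expressing cells normalized to confluence, imaged every 90 min across 24 h after ionomycin (100 ng/mL)/PMA (10 ng/mL) stimulation of HEK293 cells pre-treated 4 h with compound (0.1% DMSO); triplicate independent experiments.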

TRIM24 = molecular target: T5, TRIM24 (Homo sapiens, UniProt O15164); assay: Liability panel screening by DSF: TRIM24; format: binding; conditions: DSF, 20 µM, n=2; read-out: Mean ΔTM TRIM24
T5 construct: This panel comprised ten highly ligandable kinases and bromodomains; made in house
T5 sequence (O15164 899-1004 limits assumed): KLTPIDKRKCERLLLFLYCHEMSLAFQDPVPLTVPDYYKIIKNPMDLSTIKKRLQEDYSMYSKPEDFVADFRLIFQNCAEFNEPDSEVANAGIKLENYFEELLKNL
Procedure, shortened: as §1

HEK293T cells [4] = assay: Cytotoxicity: metabolic activity (WST-8 / CCK-8 assay); conditions: 3 µM; HEK293T, 24 h; WST-8; normalized to 0.1% DMSO; single replicates
ABL1 = molecular target: T6, ABL1 (Homo sapiens, UniProt P00519); assay: Liability panel screening by DSF: ABL1; format: binding; conditions: DSF, 20 µM, n=2; read-out: Mean ΔTM ABL1
T6 construct: made in house
T6 sequence (P00519 whole entry, species assumed): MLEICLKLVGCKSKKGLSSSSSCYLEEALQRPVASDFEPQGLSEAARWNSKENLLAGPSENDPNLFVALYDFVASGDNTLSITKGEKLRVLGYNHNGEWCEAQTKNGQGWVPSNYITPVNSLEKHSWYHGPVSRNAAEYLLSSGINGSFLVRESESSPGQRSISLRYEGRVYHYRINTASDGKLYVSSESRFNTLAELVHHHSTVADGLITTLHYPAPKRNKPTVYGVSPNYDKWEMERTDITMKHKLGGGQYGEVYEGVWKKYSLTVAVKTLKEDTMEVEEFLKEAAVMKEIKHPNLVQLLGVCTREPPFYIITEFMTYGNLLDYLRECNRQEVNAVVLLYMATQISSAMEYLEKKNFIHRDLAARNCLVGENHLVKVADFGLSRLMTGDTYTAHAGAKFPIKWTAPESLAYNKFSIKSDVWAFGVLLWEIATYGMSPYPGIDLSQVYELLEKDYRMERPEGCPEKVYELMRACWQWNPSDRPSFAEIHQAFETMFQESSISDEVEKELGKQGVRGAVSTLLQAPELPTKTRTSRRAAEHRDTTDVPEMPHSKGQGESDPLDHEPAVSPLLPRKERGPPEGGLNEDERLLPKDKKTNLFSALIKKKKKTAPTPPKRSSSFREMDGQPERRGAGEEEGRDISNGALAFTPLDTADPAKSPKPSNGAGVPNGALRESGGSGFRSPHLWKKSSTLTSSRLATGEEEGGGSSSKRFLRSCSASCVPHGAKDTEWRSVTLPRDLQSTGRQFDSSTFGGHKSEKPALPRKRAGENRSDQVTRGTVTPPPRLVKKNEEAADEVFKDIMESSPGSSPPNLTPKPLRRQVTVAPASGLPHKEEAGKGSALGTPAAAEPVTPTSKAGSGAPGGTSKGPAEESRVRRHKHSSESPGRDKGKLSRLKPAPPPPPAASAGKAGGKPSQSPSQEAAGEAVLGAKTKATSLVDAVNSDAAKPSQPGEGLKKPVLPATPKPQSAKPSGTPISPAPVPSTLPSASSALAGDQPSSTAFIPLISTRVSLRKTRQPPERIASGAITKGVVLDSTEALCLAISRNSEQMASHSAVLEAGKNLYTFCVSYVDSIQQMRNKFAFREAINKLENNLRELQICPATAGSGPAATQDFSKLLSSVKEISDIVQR
Procedure, shortened: as §1

FGFR3 = molecular target: T7, FGFR3 (Homo sapiens, UniProt P22607); assay: Liability panel screening by DSF: FGFR3; format: binding; conditions: DSF, 20 µM, n=2; read-out: Mean ΔTM FGFR3
T7 construct: made in house
T7 sequence (P22607 23-806, species assumed): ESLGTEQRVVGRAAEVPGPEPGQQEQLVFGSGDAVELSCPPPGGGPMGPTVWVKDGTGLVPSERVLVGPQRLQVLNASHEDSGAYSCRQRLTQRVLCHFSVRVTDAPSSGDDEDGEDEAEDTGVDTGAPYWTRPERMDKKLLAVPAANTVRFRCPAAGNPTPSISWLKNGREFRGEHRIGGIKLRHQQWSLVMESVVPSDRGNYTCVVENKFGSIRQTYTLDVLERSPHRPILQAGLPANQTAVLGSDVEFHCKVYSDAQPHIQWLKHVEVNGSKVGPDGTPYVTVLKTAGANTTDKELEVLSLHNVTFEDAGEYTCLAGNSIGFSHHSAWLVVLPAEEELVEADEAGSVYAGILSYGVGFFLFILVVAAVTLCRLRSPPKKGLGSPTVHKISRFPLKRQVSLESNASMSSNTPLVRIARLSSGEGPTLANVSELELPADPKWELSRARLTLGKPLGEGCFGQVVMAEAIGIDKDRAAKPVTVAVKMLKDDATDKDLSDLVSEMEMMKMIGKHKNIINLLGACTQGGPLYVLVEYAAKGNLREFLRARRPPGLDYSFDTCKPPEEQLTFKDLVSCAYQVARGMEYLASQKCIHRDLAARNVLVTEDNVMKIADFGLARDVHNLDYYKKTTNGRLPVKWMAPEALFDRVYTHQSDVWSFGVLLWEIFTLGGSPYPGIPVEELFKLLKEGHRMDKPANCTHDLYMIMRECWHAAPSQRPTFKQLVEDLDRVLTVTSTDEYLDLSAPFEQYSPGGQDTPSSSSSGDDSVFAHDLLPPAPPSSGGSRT
Procedure, shortened: as §1

BRPF1 = molecular target: T8, BRPF1 (Homo sapiens, UniProt P55201); assay: Liability panel screening by DSF: BRPF1; format: binding; conditions: DSF, 20 µM, n=2; read-out: Mean ΔTM BRPF1
T8 construct: This panel comprised ten highly ligandable kinases and bromodomains; made in house
T8 sequence (P55201 628-732 limits assumed): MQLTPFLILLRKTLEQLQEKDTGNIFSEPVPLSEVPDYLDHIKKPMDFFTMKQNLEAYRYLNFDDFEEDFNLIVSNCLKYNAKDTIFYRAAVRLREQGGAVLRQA
Procedure, shortened: as §1

NR3B3 (ERRγ) = conditions: ref Supplementary Table 1; cited from earlier work
HEK293T cells [5] = assay: Cytotoxicity: growth-rate (change in confluence over 24 h); conditions: 3 µM, normalized to 0.1% DMSO control, single replicates (n=1...)
HEK293T cells [6] = assay: Cytotoxicity: necrosis induction (red fluorescent dye for permeable plasma membranes); format: cell-based; conditions: 3 µM, 24 h, necrotic cell count normalized to 0.1% DMSO, single replicates;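 note: compounds applied in DMEM high glucose with 0.1% FCS and 0.1% DMSO, necrotic HEK293T cells counted by red staining of cells whose plasma membranes had become permeable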
GSK3B = molecular target: T9, GSK3B (Homo sapiens, UniProt P49841); assay: Liability panel screening by DSF: GSK3B; format: binding; conditions: DSF, 20 µM, n=2; read-out: Mean ΔTM GSK3B
T9 construct: made in house
T9 sequence (P49841 whole entry, species assumed): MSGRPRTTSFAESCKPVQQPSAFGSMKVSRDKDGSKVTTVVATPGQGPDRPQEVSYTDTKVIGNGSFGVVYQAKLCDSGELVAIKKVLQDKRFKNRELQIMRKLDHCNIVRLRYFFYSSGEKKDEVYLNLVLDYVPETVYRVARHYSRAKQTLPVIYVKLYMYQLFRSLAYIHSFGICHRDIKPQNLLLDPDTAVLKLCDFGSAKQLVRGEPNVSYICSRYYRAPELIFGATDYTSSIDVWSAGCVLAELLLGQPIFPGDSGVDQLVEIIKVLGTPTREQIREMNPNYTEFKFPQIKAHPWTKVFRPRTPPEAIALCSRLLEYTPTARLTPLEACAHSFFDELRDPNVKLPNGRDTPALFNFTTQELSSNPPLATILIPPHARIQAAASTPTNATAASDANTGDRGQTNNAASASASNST

Gal4-VP16 = format: cell-based; conditions: 3 µM; vs. DMSO ctrl; single replicates n=1-3
NR3B2 (ERRβ) = conditions: ref Supplementary Table 1; cited from earlier work
MAPK1 = molecular target: T10, MAPK1 (Homo sapiens, UniProt P28482); assay: Liability panel screening by DSF: MAPK1; format: binding; conditions: DSF, 20 µM, n=2; read-out: Mean ΔTM MAPK1
T10 construct: made in house
T10 sequence (P28482 whole entry, species assumed): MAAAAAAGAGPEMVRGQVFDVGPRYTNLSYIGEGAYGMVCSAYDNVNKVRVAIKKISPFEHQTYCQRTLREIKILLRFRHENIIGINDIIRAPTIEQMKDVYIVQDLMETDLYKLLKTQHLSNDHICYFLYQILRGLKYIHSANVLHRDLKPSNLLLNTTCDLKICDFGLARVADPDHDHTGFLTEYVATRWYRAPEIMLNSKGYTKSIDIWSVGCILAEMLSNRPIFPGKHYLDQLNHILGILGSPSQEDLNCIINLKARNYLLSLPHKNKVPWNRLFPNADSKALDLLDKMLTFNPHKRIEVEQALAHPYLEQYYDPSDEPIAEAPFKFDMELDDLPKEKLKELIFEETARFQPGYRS
Procedure, shortened: as §1

Compound: CC(C)c1ccc(/C=N/NC(=O)c2ccc(O)cc2)cc1 [GSK4716]
- ΔTm at 20 µM (BRD4): -0.72 °C
- ΔTm at 20 µM (CSNK1D): -0.73 °C
- ATF6 activity (tunicamycin-induced endoplasmic reticulum stress) ([1]; Hela ATF6 reporter cells, tunicamycin 100 ng/mL, 18 h, compounds at recommended concentrations, n = 5): strongly ameliorated the tunicamycin-induced endoplasmic reticulum stress
- activity at 3 µM ([1]; Homo sapiens, HeLa, 3 µM, single replicates n=1 to n=5, read-out: ER stress [rel. ATF6 activity]): 15%
- Apoptosis induction [AI] (HEK293T cells [2]): 1.16 and 0.91 and 0.96 and 0.89 and 0.51 and 0.66
- ΔTm at 20 µM (AURKA): 0.71 °C
- ΔTm at 20 µM (CDK2): 1.04 °C
- Mean NFκB response ([3]; 3 µM, 1,5 h): 3350.67 GFP+-cells/confluence ∙ 1000
- Mean NFκB response ([3]; 3 µM, 4,5 h): 4011.96 GFP+-cells/confluence ∙ 1000
- Mean NFκB response ([3]; 3 µM, 7,5 h): 8902.65 GFP+-cells/confluence ∙ 1000
- Mean NFκB response ([3]; 3 µM, 10,5 h): 19241.33 GFP+-cells/confluence ∙ 1000
- Mean NFκB response ([3]; 3 µM, 13,5 h): 27824.67 GFP+-cells/confluence ∙ 1000
- Mean NFκB response ([3]; 3 µM, 16,6 h): 34184.33 GFP+-cells/confluence ∙ 1000
- Mean NFκB response ([3]; 3 µM, 19,5 h): 38593.33 GFP+-cells/confluence ∙ 1000
- Mean NFκB response ([3]; 3 µM, 22,5 h): 41930.00 GFP+-cells/confluence ∙ 1000
- Mean NFκB response ([3]; 3 µM, 3 h): 3264.72 GFP+-cells/confluence ∙ 1000
- Mean NFκB response ([3]; 3 µM, 6 h): 5255.77 GFP+-cells/confluence ∙ 1000
- Mean NFκB response ([3]; 3 µM, 9 h): 14135.33 GFP+-cells/confluence ∙ 1000
- Mean NFκB response ([3]; 3 µM, 12 h): 23629.33 GFP+-cells/confluence ∙ 1000
- Mean NFκB response ([3]; 3 µM, 15 h): 31599.67 GFP+-cells/confluence ∙ 1000
- Mean NFκB response ([3]; 3 µM, 18 h): 36410.00 GFP+-cells/confluence ∙ 1000
- Mean NFκB response ([3]; 3 µM, 21 h): 40543.33 GFP+-cells/confluence ∙ 1000
- Mean NFκB response ([3]; 3 µM, 24 h): 43546.67 GFP+-cells/confluence ∙ 1000
- ΔTm at 20 µM (TRIM24): 0.64 °C
- Metabolic activity [MA] (HEK293T cells [4]): 1.04 and 0.92 and 0.86 and 0.83 and 0.84 (2×) and 0.81 and 0.76
- ΔTm at 20 µM (ABL1): 1.07 °C
- ΔTm at 20 µM (FGFR3): 0.7 °C
- ΔTm at 20 µM (BRPF1): 0.6 °C
- rel. activity from literature, NR3B3 (ERRγ): fold activation (NR3B3 (ERRγ)): 6 fold
- Growth rate [GR] (HEK293T cells [5]): 0.56 and 4.17 and 0.59 and 0.95 and 0.79 and 0.39 and 0.32 and 1.23 and 0.96 and 33.22
- Necrosis induction [NI] (HEK293T cells [6]): 0.73 and 0.72 and 1.06 and 0.88
- ΔTm at 20 µM (GSK3B): -3.45 °C
- VP16 control [fold reporter gene activity] (Gal4-VP16): 1.46 fold reporter gene activity and 1.30 fold reporter gene activity and 1.47 fold reporter gene activity
- rel. activity from literature, NR3B2 (ERRβ): fold activation (NR3B2 (ERRβ)): 10 fold
- ΔTm at 20 µM (MAPK1): 0.09 °C
